The assay concerns BDF1 mice, P1081 chloroleukemia ip, survival T/C. Put plainly: NCI In Vivo Anticancer Drug Screen. Data for tumor model P1081 Chloroleukemia (intraperitoneal) in B6D2F1 (BDF1) mice. The note with it: endpoint: mean survival time, higher = longer survival. The procedure:
The antitumor activity of compounds was measured in mice bearing transplantable tumors. Survival or tumor size were measured and the results are expressed as the measurement made in the treated group (T) divided by the measurement made in the vehicle treated control group (C). The tumor model used in this assay is P1081 Chloroleukemia (intraperitoneal) in B6D2F1 (BDF1) mice

Setting [1] is: dose: 6.25 mg/kg/injection, schedule: Q01DX Z (ip), vehicle: carboxymethylcellulose (CMC).
Setting [2] is: dose: 12.5 mg/kg/injection, schedule: Q01DX Z (ip), vehicle: carboxymethylcellulose (CMC).
Where [3] appears, read: dose: 25.0 mg/kg/injection, schedule: Q01DX Z (ip), vehicle: carboxymethylcellulose (CMC).
[4] abbreviates: dose: 50.0 mg/kg/injection, schedule: Q01DX Z (ip), vehicle: carboxymethylcellulose (CMC).
Where [5] appears, read: dose: 100.0 mg/kg/injection, schedule: Q01DX010 (ip), vehicle: saline.

Several values for one entry are separate records, joined by “and”; a condition that tells them apart may be missing. Equal values may be shown once. Inconclusive results and toxic doses are left out.

As to `CN(C)c1ccc(/C=C/c2ccnc3ccccc23)cc1`, the T/C (dose: 1.56 mg/kg/injection, schedule: Q01DX Z (ip), vehicle: water) is 100 % of control; the T/C (dose: 3.12 mg/kg/injection, schedule: Q01DX Z (ip), vehicle: water) is 94 % of control; the T/C (dose: 5.0 mg/kg/injection, schedule: Q01DX010 (ip), vehicle: saline) is 111 % of control and 100 % of control; the T/C under setting [1] is 110 % of control; the T/C (dose: 6.25 mg/kg/injection, schedule: Q01DX Z (ip), vehicle: water) is 101 % of control; the T/C (dose: 10.0 mg/kg/injection, schedule: Q01DX010 (ip), vehicle: saline) is 110 % of control and 100 % of control. The T/C reads like this: under setting [2], 115 % of control; (dose: 12.5 mg/kg/injection, schedule: Q01DX Z (ip), vehicle: water) 107 % of control; (dose: 20.0 mg/kg/injection, schedule: Q01DX010 (ip), vehicle: saline) 111 % of control and 100 % of control; under setting [3], 102 % of control; (dose: 40.0 mg/kg/injection, schedule: Q01DX010 (ip), vehicle: saline) 111 % of control and 95 % of control; under setting [4], 119 % of control and 97 % of control. For the same compound, the T/C (dose: 100.0 mg/kg/injection, schedule: Q01DX Z (ip), vehicle: carboxymethylcellulose (CMC)) is 104 % of control.
Take `CS(=O)(=O)OCC(O)C(O)COS(C)(=O)=O` (stereo not drawn): the T/C was 86 % of control (dose: 94.0 mg/kg/injection, schedule: Q01DX Z (ip), vehicle: saline); 107 % of control (dose: 188.0 mg/kg/injection, schedule: Q01DX Z (ip), vehicle: saline); 95 % of control (dose: 375.0 mg/kg/injection, schedule: Q01DX Z (ip), vehicle: saline); 122 % of control (dose: 750.0 mg/kg/injection, schedule: Q01DX Z (ip), vehicle: saline); 166 % of control (dose: 1500.0 mg/kg/injection, schedule: Q01DX Z (ip), vehicle: saline); 173 % of control (dose: 3000.0 mg/kg/injection, schedule: Q01DX Z (ip), vehicle: saline).
Take `CN(Cc1cnc2nc(N)nc(N)c2n1)c1c(Cl)cc(C(=O)NC(CCC(=O)O)C(=O)O)cc1Cl` (stereo not drawn): the T/C runs as follows: under setting [2], 101 % of control; under setting [3], 102 % of control.
Take `CCN(CC)C(=S)S`: the T/C by setting is: (dose: 125.0 mg/kg/injection, schedule: Q01DX Z (ip), vehicle: other) 99 % of control; (dose: 250.0 mg/kg/injection, schedule: Q01DX Z (ip), vehicle: other) 96 % of control; (dose: 1000.0 mg/kg/injection, schedule: Q01DX Z (ip), vehicle: other) 102 % of control.
Consider `O[C@H](CN1CC1)[C@@H](O)CN1CC1`, for which the T/C runs as follows: (dose: 0.12 mg/kg/injection, schedule: Q01DX Z (ip), vehicle: carboxymethylcellulose (CMC)) 193 % of control; (dose: 0.25 mg/kg/injection, schedule: Q01DX Z (ip), vehicle: carboxymethylcellulose (CMC)) 204 % of control; (dose: 0.5 mg/kg/injection, schedule: Q01DX Z (ip), vehicle: carboxymethylcellulose (CMC)) 117 % of control; (dose: 16.0 micrograms/kg/injection, schedule: Q01DX Z (ip), vehicle: carboxymethylcellulose (CMC)) 100 % of control; (dose: 62.5 micrograms/kg/injection, schedule: Q01DX010 (ip), vehicle: saline) 316 % of control; (dose: 125.0 micrograms/kg/injection, schedule: Q01DX010 (ip), vehicle: saline) 210 % of control and 261 % of control. Also, the T/C is 157 % of control (dose: 125.0 micrograms/kg/injection, schedule: Q01DX Z (ip), vehicle: carboxymethylcellulose (CMC)); 288 % of control (dose: 250.0 micrograms/kg/injection, schedule: Q01DX010 (ip), vehicle: saline); 150 % of control and 177 % of control (dose: 500.0 micrograms/kg/injection, schedule: Q01DX010 (ip), vehicle: saline).
As to `CCN(CC)CCNc1ccc(C)c2sc3ccccc3c(=O)c12`, the T/C by setting is: (dose: 1.56 mg/kg/injection, schedule: Q01DX Z (ip), vehicle: methylcellulose (MC)) 87 % of control; (dose: 6.25 mg/kg/injection, schedule: Q01DX Z (ip), vehicle: methylcellulose (MC)) 88 % of control; (dose: 6.3 mg/kg/injection, schedule: Q01DX Z (ip), vehicle: methylcellulose (MC)) 90 % of control; (dose: 12.5 mg/kg/injection, schedule: Q01DX Z (ip), vehicle: methylcellulose (MC)) 91 % of control; (dose: 25.0 mg/kg/injection, schedule: Q01DX010 (ip), vehicle: saline) 110 % of control and 122 % of control; (dose: 25.0 mg/kg/injection, schedule: Q01DX Z (ip), vehicle: methylcellulose (MC)) 95 % of control. In addition, the T/C runs as follows: (dose: 50.0 mg/kg/injection, schedule: Q01DX010 (ip), vehicle: saline) 150 % of control; (dose: 50.0 mg/kg/injection, schedule: Q01DX Z (ip), vehicle: methylcellulose (MC)) 96 % of control; under setting [5], 122 % of control and 95 % of control; (dose: 100.0 mg/kg/injection, schedule: Q01DX Z (ip), vehicle: methylcellulose (MC)) 101 % of control.
For `CO[C@@H]1[C@@H](OC2OC(C)C(OC3CC(C)(O)C(OC(=O)CC(C)C)C(C)O3)C(N(C)C)C2O)[C@@H](CC=O)C[C@@H](C)C(=O)/C=C/C2O[C@H]2C[C@@H](C)OC(=O)C[C@H]1OC(C)=O` (stereo partly drawn), the T/C is 111 % of control and 120 % of control (dose: 37.5 mg/kg/injection, schedule: Q01DX010 (ip), vehicle: saline); 111 % of control and 115 % of control (dose: 150.0 mg/kg/injection, schedule: Q01DX010 (ip), vehicle: saline); 122 % of control (dose: 300.0 mg/kg/injection, schedule: Q01DX010 (ip), vehicle: saline).
`O=C(Nc1ccc(C2=NCCN2)cc1)c1cccc(C(=O)Nc2ccc(C3=NCCN3)cc2)c1`: the T/C (dose: 2.35 mg/kg/injection, schedule: Q01DX Z (ip), vehicle: water) is 106 % of control; the T/C (dose: 4.7 mg/kg/injection, schedule: Q01DX Z (ip), vehicle: water) is 96 % of control; the T/C (dose: 9.4 mg/kg/injection, schedule: Q01DX Z (ip), vehicle: carboxymethylcellulose (CMC)) was 152 % of control; the T/C (dose: 16.0 mg/kg/injection, schedule: Q01DX010 (ip), vehicle: saline) is 300 % of control and 333 % of control; the T/C (dose: 18.8 mg/kg/injection, schedule: Q01DX Z (ip), vehicle: carboxymethylcellulose (CMC)) is 175 % of control; the T/C (dose: 32.0 mg/kg/injection, schedule: Q01DX010 (ip), vehicle: saline) was 300 % of control and 333 % of control. Moreover, the T/C runs as follows: (dose: 37.5 mg/kg/injection, schedule: Q01DX Z (ip), vehicle: carboxymethylcellulose (CMC)) 206 % of control; (dose: 64.0 mg/kg/injection, schedule: Q01DX010 (ip), vehicle: saline) 294 % of control and 300 % of control; (dose: 75.0 mg/kg/injection, schedule: Q01DX Z (ip), vehicle: carboxymethylcellulose (CMC)) 209 % of control; (dose: 128.0 mg/kg/injection, schedule: Q01DX010 (ip), vehicle: saline) 200 % of control; (dose: 150.0 mg/kg/injection, schedule: Q01DX Z (ip), vehicle: water) 100 % of control.
With `CC(=O)Nc1ccc2nc3ccc(NC(C)=O)cc3[n+](-c3ccccc3)c2c1`, the T/C is 103 % of control under setting [2], 109 % of control under setting [3] and 111 % of control under setting [4].
For `O=C(Nc1ccc(NC2=NCCN2)cc1)c1ccc(C(=O)Nc2ccc(NC3=NCCN3)cc2)cc1`, the T/C by setting is: (dose: 2.0 mg/kg/injection, schedule: Q01DX010 (ip), vehicle: saline) 161 % of control; (dose: 2.0 mg/kg/injection, schedule: Q01DX Z (ip), vehicle: saline) 96 % of control; (dose: 4.0 mg/kg/injection, schedule: Q01DX010 (ip), vehicle: saline) 300 % of control and 333 % of control; (dose: 8.0 mg/kg/injection, schedule: Q01DX010 (ip), vehicle: saline) 300 % of control and 333 % of control; (dose: 8.0 mg/kg/injection, schedule: Q01DX Z (ip), vehicle: saline) 153 % of control and 171 % of control; (dose: 16.0 mg/kg/injection, schedule: Q01DX Z (ip), vehicle: saline) 190 % of control. The T/C (dose: 32.0 mg/kg/injection, schedule: Q01DX Z (ip), vehicle: saline) is 96 % of control.
On to `CSc1ncnc2nc[nH]c12`, for which the T/C under setting [1] is 100 % of control; the T/C under setting [2] is 100 % of control; the T/C under setting [3] is 93 % of control; the T/C under setting [5] was 115 % of control; the T/C (dose: 200.0 mg/kg/injection, schedule: Q01DX010 (ip), vehicle: saline) was 120 % of control; the T/C (dose: 200.0 mg/kg/injection, schedule: Q01DX Z (ip), vehicle: carboxymethylcellulose (CMC)) is 114 % of control.

Values taken from PubChem BioAssay AID246 (DTP/NCI, 2004).
